Experimental data as given in PubChem BioAssay (NCI).
Values joined by “and” are separate entries in the source; they are usually repeats but may differ in a detail not shown here. Equal values may be shown once.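 Interpolation was linear, between the two tested concentrations surrounding the appropriate level; five concentrations were tested over 48 hours in 96-well plates. GI50 is the concentration that inhibits growth by half. TGI is the concentration that stops growth completely.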

What was measured:
Experiment in all cases: NCI tumour cell line growth inhibition, 48 h
[1] = test system: DMS 273 small cell lung
[2] = test system: EKVX NSCLC
[3] = test system: KM20L2 colon
[4] = test system: LXFL 529 NSCLC
[5] = test system: M19-MEL melanoma
[6] = test system: SK-MEL-2 melanoma
[7] = test system: DU-145 prostate
[8] = test system: HS 578T breast
[9] = test system: PC-3 prostate
[10] = test system: SNB-78 CNS

Structure (SMILES) | TGI [1] | TGI [2] | TGI [3] | TGI [4] | TGI [5] | TGI [6] | GI50 [7] | TGI [7] | GI50 [2] | GI50 [8] | TGI [8] | GI50 [9] | TGI [9] | GI50 [6] | TGI [10]
C=CCN(N=O)C(=O)N(CCC)CCCC(NC(C)=O)C(=O)NCc1ccccc1 (stereo not drawn) | > 100 µM | > 100 µM | > 100 µM | > 100 µM | > 100 µM | > 100 µM |  |  |  |  |  |  |  |  | 
O=C1C=C(c2cc(Br)c(O)c(Br)c2)/C(=C/c2cc(Br)c(O)c(Br)c2)O1 |  | > 75 µM |  |  |  | > 75 µM | 31.7 µM | > 75 µM | 54.1 µM | 33900 nM | > 75 µM | 25 µM | > 75 µM | 38.5 µM | 
COC(=O)/C(=N/NC(C)(C)C)C(C(=O)C=C(C)C)C(=O)C(=O)Nc1ccc(Cl)cc1C (stereo not drawn) |  | > 100 µM | > 100 µM | > 100 µM | > 100 µM | > 100 µM |  |  |  |  |  |  |  |  | 
O=Nc1c2cccnc2n2nnc3ccc(Cl)cc3c12 |  | 19.6 µM |  |  |  | 13.3 µM | 0.893 µM | 2.93 µM | 3.59 µM | 2840 nM | 9.89 µM | 1.09 µM | 7.98 µM | 3.6 µM | 
COC(=O)c1ccc2c(c1)c1c(C)c3cnccc3c(C)c1n2C |  | 0.623 µM |  |  |  | 0.471 µM | 0.0513 µM | 1.28 µM | 0.186 µM | 108 nM | 0.584 µM | 0.0579 µM | 4.06 µM | 0.107 µM | 
OC1CCC(Oc2cccc3cnc(Nc4ccc5nc[nH]c5c4)nc23)CC1 (stereo not drawn) |  | 10.8 µM |  |  |  | 2.93 µM | 0.246 µM | 17.2 µM | 0.487 µM | 728 nM | 8.32 µM | 0.254 µM | 20.7 µM | 0.873 µM | 
CN(C)CCNC(=O)c1cccc(CO)c1[N+](=O)[O-] |  |  |  |  |  | > 100 µM |  | > 100 µM |  |  | > 100 µM |  | > 100 µM |  | 
NC(N)=N/N=C/c1c(-c2cc(Cl)sc2Cl)nc2n1CCS2 |  | 18.1 µM |  |  |  | > 50 µM |  |  | 9.21 µM | 9230 nM | 21.8 µM | 8.2 µM | 15.2 µM | 22.6 µM | 
OCCCNCc1ccccn1 |  | > 100 µM |  |  |  | > 100 µM |  | > 100 µM |  |  | > 100 µM |  | > 100 µM |  | 
CCOC(=O)c1c2ccc(/C=C/C(=O)OC)ccc-2c(C(=O)OCC)c1N | > 100 µM | > 100 µM | > 100 µM | > 100 µM | > 100 µM | > 100 µM |  |  |  |  |  |  |  |  | 
ClCCn1cnc2c(SCc3ccccc3)ncnc21 |  | > 100 µM |  |  |  | > 100 µM | 3.82 µM | > 100 µM | 18.3 µM | 15400 nM | > 100 µM | 0.356 µM | > 100 µM | 2.24 µM | 
CC1=CC[C@@H]2C(C)(C)[C@@H](O)CC[C@@]2(C)[C@@H]1COc1ccc2ccc(=O)oc2c1 |  | 26.7 µM |  |  |  | 21.9 µM | 5.39 µM | 17.8 µM | 10.3 µM | 3290 nM | 23.4 µM | 3.28 µM | 15.9 µM | 5.49 µM | 
CN(C)CCNc1cccc2sc3ccc(O)cc3c(=O)c12 |  |  |  |  |  |  | 1.12 µM | 11.2 µM |  | 1750 nM | 11.8 µM | 2.44 µM | 13.4 µM |  | 
CCCCCCCCCCCCC(SCCNC(=O)CCNC(=O)C(O)C(C)(C)COP(=O)(O)OP(=O)(O)OCC1OC(n2cnc3c(N)ncnc32)C(O)C1OP(=O)(O)O)C(=O)NCC(N)=O (stereo not drawn) | > 100 µM | > 100 µM | > 100 µM | > 100 µM | > 100 µM | > 100 µM |  |  |  |  |  |  |  |  | 
N#CC1C(N)=NNC1c1ccc(-c2ccc(-c3nc4ccccc4o3)cc2)o1 (stereo not drawn) |  | 81.2 µM |  |  |  | > 100 µM | 15.3 µM | 41.1 µM | 14.6 µM | 29600 nM | > 100 µM | 40.3 µM | > 100 µM | 37.5 µM | 
Cc1ccc(S(=O)(=O)NCCN2c3nc4ccccc4cc3Sc3cc4ccccc4nc32)cc1 |  | > 100 µM |  |  |  | > 80.2 µM | > 100 µM | > 100 µM | > 77 µM | 2430 nM | 23.2 µM |  |  | > 37.4 µM | 
CCN(CC)CC(C)Nc1ccc(C)c2sc3ccccc3c(=O)c12 (stereo not drawn) |  | 24.2 µM |  |  |  | 25.5 µM | 6.68 µM | 19.1 µM | 7.86 µM | 2290 nM | 9 µM | 3.6 µM | 16.6 µM | 9.07 µM | 
CCOC(=O)/C=C/c1ccc(C(=O)OCC)[nH]1 |  | > 100 µM |  |  |  |  | 3.41 µM | 19.6 µM | 9.89 µM | 2430 nM | 22.3 µM | 4.7 µM | > 100 µM |  | 
COc1ccc2c(C3(O)CCNCC3)c[nH]c2c1 | > 100 µM | > 100 µM | > 100 µM | > 100 µM | > 100 µM | > 100 µM |  |  |  |  |  |  |  |  | 
COC(=O)C12C3C4C1C1C2C3C41I (stereo not drawn) |  | > 100 µM | > 100 µM | > 100 µM | > 100 µM |  |  |  |  |  |  |  |  |  | > 100 µM
Cc1cc2occ(C)c(=O)c2c2c1OC(C)(C)S2 | > 100 µM | > 100 µM | > 100 µM | > 100 µM | > 100 µM | > 100 µM |  |  |  |  |  |  |  |  | 
O=S(=O)(O)c1ccc2cc(N=Nc3cc(S(=O)(=O)O)c4cccnc4c3O)ccc2c1 |  | > 100 µM |  |  |  | > 100 µM |  | > 100 µM |  |  | > 100 µM |  | > 100 µM |  | 
c1cc(-c2sc(-c3ccncc3)c(-c3ccncc3)c2-c2ccncc2)ccn1 |  | 43.9 µM |  |  |  | 48.1 µM |  | 76 µM |  |  | 73.5 µM |  | 57.4 µM |  | 
Cn1cnc([N+](=O)[O-])c1Sc1ncnc2nc[nH]c12 |  | > 100 µM |  |  |  | > 100 µM | 3.03 µM and 4.36 µM | > 100 µM | 28.3 µM and > 100 µM | 4800 nM and 3860 nM | > 100 µM | 25.6 µM and 45.9 µM | > 100 µM |  | 
CCOC(=O)/C(C1=CC(=O)C(=O)c2ccccc21)=C(/C)NCc1ccccc1 |  | 5.06 µM |  |  |  | > 100 µM | 1.79 µM | 3.32 µM | 2.33 µM | 2540 nM | 6.96 µM | 1.23 µM | 2.48 µM | 5.87 µM | 
